According to US6958360B2, “Attractant pheromone for the Colorado potato beetle” (The United States of America as represented by the …, priority 2001, dated 2005):
“Also recorded” adds a separate entry of the source. Marks after values point to notes of the source that are not given here.

Key:
[1] = tested on: CPB adult antenna; experiment: Coupled GC/electroantennogram detection (GC/EAD, EAG); parameters: species or system Leptinotarsa decemlineata
Protocol: Vertical bars represent standard errors (N=6, 3 males and 3 females).
GC/EAD analysis of volatile collections: One microlitre samples of volatile collections were injected into a Hewlett Packard™ Model 5890A gas chromatograph (GC) equipped with an HP-5 capillary column (crosslinked 5% PH ME Siloxane; film thickness 0.25 μm; length 30 m; i.d. 0.25 mm) and flame ionization detector (FID). The effluent from the column was split using a Gerstel™ GraphPack-3D/2 splitter with a ratio of ˜1 to the GC (FID): 4 to an electroantennogram preparation of a CPB adult (EAD). The EAD preparation was an adult CPB antenna removed and mounted between two glass capillary electrodes filled with 0.1M NaCl. Ag—AgCl wires in the glass capillaries. An effluent conditioning assembly to carry GC effluent over a CPB antennal preparation, hardware, and software for data collection and analyses using a computer were obtained from SYNTECH (Hilversum, the Netherlands). After an initial temperature of 50° C. held for 2 minutes following injection, the GC oven increased at 15° C./min to 235° C. which was held for 8 minutes.
Sensitivity of antennal olfactory receptors for the racemate and optical isomers of the male specific compound were tested using coupled GC/EAD and single sensillum recording techniques. GC/EAD tests involved injection of 1 μl of serial dilutions of 3,7-dimethyl-2-oxo-oct-6-ene-1,3-diol (CPB I).

[2] = tested on: Colorado potato beetle (CPB); experiment: Open Y-track olfactometer laboratory behavioral bioassay, pheromone and plant volatile blends; format: in vivo, Leptinotarsa decemlineata
Protocol: Insects: All life stages were reared on potted potato plants kept in screened cages inside incubators set for 16L:8D, 25° C. during photophase, 23° C. during scotophase, and 80% R.H. Upon emergence adult beetles were kept individually in plastic cups with perforated plastic snap-on lids, and provided with clean pieces of paper toweling and potato foliage daily.
Bioassay apparatus and protocol: Stock solutions of test compounds, e.g. (S)-CPB I, and individual plant volatiles 2-phenylethanol, nonanal and (±)-linalool, were prepared at 10 μg/μl in hexane. Serial dilutions were made to obtain a test solution of 0.1 μg/μl. Each bioassay treatment of CPB I used a 10 μl aliquot of test solution, or a total of 1 μg of neat material. A […] stock solution of a 3-component blend of selected potato volatiles, (Z)-3-hexenyl acetate, linalool, and methyl salicylate, was prepared as follows: 8.3 μl of each was added to 975 μl of mineral oil, creating a solution of 25 μg of blend components/μl. This stock solution was diluted to obtain a solution of 2.5 μg of blend components/μl. Each bioassay treatment of blend used a 20 μl aliquot of test solution, or a total of 50 μg (16.67 μg/component) of the components.
Prior to testing at age 7-14 days, unmated insects were held individually in 5.5 oz. cups, provided with fresh potato foliage on a continuous basis, and maintained under incubator conditions of 16L:8D, 80-90% R.H., and “day” and “night” temperatures of 25° C. and 23° C., respectively. On the day of testing, insects were transferred to smaller 1 oz. cups and held for 1-3 hrs with moist filter paper but no foliage, then held in darkness for an additional 1-2 hrs.
Individual chemicals and chemical blends were tested for activity in an open Y-track olfactometer modified after Visser and Piron (1998) and described in detail by Dickens (1999; 2000; and Dickens, J. C., et al., Breaking a paradigm: male-produced aggregation pheromone for Colorado potato beetle. Journal of Experimental Biology, 205: 1925-1933 (2002)). In brief, odorous stimuli emanating from synthetic blends on filter paper discs (2.5 cm dia.; Whatman™ #1 filter paper) in 500 ml Ehrlenmeyer flasks were delivered to either side of the device. Test odorants were pipetted onto 3-cm diam. filter paper disks, which were then transferred, using long forceps, into the Erlenmeyer flasks used in the assay. If only a single test solution were being used per treatment, it was placed in the center of the filter paper; if 2 test solutions were being used per treatment, the mineral oil solution was placed in the center, and the hexane solution was spotted around the edge of the filter paper disk. Treatments were replaced after 30 minutes of testing in order to minimize variation in odor concentrations. The location of the chemical blend was switched from one side of the bioassay apparatus to the other side midway through each run in order to avoid bias not associated with the experimental treatment. Hydrocarbon free air that was humidified by passing through distilled water carried the odor molecules to either arm of the bioassay apparatus. Airflow was regulated to 1 l/min by flow meters. Experiments were conducted in a darkened room at 22° C. in which the only source of light was that associated with the bioassay device. For all bioassays at least 40 adults (20 males and 20 females) were tested. Orientation was scored as soon as the test insect had moved completely from the horizontal to one of the 45° angle extension arms of the bioassay device. Following each test, the bioassay device was cleaned with acetone to remove contamination left by the insect.
Statistical analysis: Laboratory bioassays were assessed for significant differences by the hypothesis on binomial proportions based on the standard normal approximation (Brase and Brase, 1983).

## CC(C)=CCC[C@](C)(O)C(=O)CO [(S)-CPB I, (S)-3,7-dimethyl-2-oxo-oct-6-ene-1,3-diol]
[1]; 10 ng injection, males and females combined
  Mean EAG (in words): significantly greater for the (S)-enantiomer than the (R)-enantiomer
[1]; volatiles from potato plants / CPB feeding on plant
  EAD response to compound in volatile collections (in words): a large EAD was consistently present
[2]; B = Control (solvent)
  Female % to A.: 90%**
  Male % to A.: 90%**
  Total % to A.: 90%**
[2]; B = Plant blend
  Female % to A.: 50%
  Male % to A.: 50%
  Total % to A.: 50%
[2]; comparator as in the treatment pair of Table 2
  attraction / preference (in words): attracted both male and female beetles; also recorded: no preference was shown for either attractant
